The source made the active and inactive calls. A value given as a limit tells only on which side of the number the result lay.

One data set deals with Exodeoxyribonuclease V (Escherichia coli (strain K12), UniProt P04993+P07648+P08394). Kind of data set: RecBCD inhibition via phage-restricted bacterial growth – absorbance, V66 E. coli, mutant T4 phage, counter-screen for AddAB inhibitor project, dose response (AID 492957). Format: functional, cell-based, Escherichia coli str. K-12 substr. MG1655.
Data set [1] is described as follows: Counterscreen for AddAB inhibitors: absorbance-based bacterial cell-based high throughput dose response assay for inhibitors of bacterial viability. [Related pubchem assays (depositor defined):AID435030, AID449728, AID449731, AID488942, AID488955, AID488956]. Format: functional.
The target of data set [2] is T1, Delta-type opioid receptor (Homo sapiens, UniProt P41143). Kind of data set: HTS Image-Based Screen for Antagonists of the DOR Receptor. [Related pubchem assays (depositor defined):AID1777, AID1785, AID1786, AID2133]. Format: functional.
Another data set addresses Mu-type opioid receptor (Homo sapiens, UniProt P35372). Kind of data set: HTS Image-Based Screen for Agonists of the MOR Receptor. [Related pubchem assays (depositor defined):AID1777, AID1785, AID1786, AID2133]. Format: functional.
Data set [3] deals with T1, Delta-type opioid receptor. Kind of data set: HTS Image-Based Screen for Agonists of the DOR Receptor. [Related pubchem assays (depositor defined):AID1777, AID1786, AID2133]. Format: functional.
In data set [4] the target is T2, Kappa-type opioid receptor (Homo sapiens, UniProt P41145). Format: functional.
Data set [5] has as its target T2, Kappa-type opioid receptor. Format: functional. This is another data set of the same source.
In data set [6] the target is T3, Fatty acid synthase (Homo sapiens, UniProt P49327). Kind of data set: inhibition of human FAS-TE enzyme activity – biochemical, endpoint fluorescence intensity, uHTS hits, dose response (AID 624327).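 Note: fluorescence from hydrolysis of an O-methyl fluorescein acyl ester substrate by the enzyme.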 Format: functional.
The target of data set [7] is T3, Fatty acid synthase. Briefly: inhibition of human FAS-TE enzyme activity – biochemical, kinetic fluorescence intensity, dose response (AID 624326).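 Note: rate of fluorescence rise from hydrolysis of a fluorogenic O-methyl fluorescein ester substrate.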 Format: functional.
Data set [8] has as its target T4, SUMO-activating enzyme (Homo sapiens, UniProt Q9UBT2). Kind of data set: blockers of UBC9-mediated SUMO conjugation – biochemical, AlphaScreen, SUMOylation inhibitor project, confirmation (AID 2018). Format: functional.
For data set [9], the target named is T4, SUMO-activating enzyme. Briefly: blockers of SAE1/SAE2–UBC9 SUMO transfer – biochemical, HTRF, uHTS, primary screen (AID 2006). Format: protein-complex assay.
For a further data set, the target named is SUMO E1/E2 (Homo sapiens, UniProt P63279+Q9UBE0+Q9UBT2). Kind of data set: SAR analysis of SUMOylation using HTRF in an in-Vitro dose response assay. [Related pubchem assays (depositor defined):AID2006, AID2011, AID2018, AID2069, AID2658]. Format: functional.
Data set [10] deals with Eukaryotic translation initiation factor 4E (Mus musculus, UniProt P63073). Briefly: blockers of eIF4G binding by eIF4E – biochemical, TR-FRET, dose response (AID 855).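 Note: potency for disrupting eIF4E binding to eIF4GI seen as loss of FRET.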 Format: functional.
Another data set concerns the target Hexokinase HKDC1 (Homo sapiens, UniProt Q2TB90). Briefly: inhibition of HKDC1 glucose phosphorylation – biochemical, W721R variant, dose response (AID 504729). Format: functional.
The target of data set [11] is T5, Replicative DNA helicase DnaB (Mycobacterium tuberculosis, UniProt P9WMR3).
T5 sequence (P9WMR3 whole entry): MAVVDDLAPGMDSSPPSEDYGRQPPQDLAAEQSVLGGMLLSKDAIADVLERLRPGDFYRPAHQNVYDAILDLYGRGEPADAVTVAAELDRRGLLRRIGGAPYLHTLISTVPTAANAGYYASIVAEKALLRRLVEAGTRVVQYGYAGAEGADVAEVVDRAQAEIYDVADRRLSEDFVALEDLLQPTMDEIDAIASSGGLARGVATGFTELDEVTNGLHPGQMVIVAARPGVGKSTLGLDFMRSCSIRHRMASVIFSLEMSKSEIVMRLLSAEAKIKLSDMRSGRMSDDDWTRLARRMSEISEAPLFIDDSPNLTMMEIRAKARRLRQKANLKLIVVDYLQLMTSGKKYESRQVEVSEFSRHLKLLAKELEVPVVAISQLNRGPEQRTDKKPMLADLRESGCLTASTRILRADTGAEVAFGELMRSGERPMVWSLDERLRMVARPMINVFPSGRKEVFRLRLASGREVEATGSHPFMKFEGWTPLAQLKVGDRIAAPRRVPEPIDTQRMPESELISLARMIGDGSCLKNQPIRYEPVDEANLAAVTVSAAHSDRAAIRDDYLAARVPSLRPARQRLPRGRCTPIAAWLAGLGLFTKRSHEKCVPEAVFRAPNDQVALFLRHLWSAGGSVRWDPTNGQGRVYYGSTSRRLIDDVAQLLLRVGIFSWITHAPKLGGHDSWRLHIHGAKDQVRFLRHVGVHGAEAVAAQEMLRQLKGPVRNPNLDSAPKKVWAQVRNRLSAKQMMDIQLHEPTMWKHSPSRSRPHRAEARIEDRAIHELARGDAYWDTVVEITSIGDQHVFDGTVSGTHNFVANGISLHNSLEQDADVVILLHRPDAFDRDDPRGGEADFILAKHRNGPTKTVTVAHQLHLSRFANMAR
Briefly: DnaB intein splicing inhibitors, dose response, biochemical, cell-free fluorescence (AID 449749). Format: functional.

A further data set addresses T6, Protein RecA (Mycobacterium tuberculosis, UniProt P9WHJ3).
T6 sequence (P9WHJ3 whole entry): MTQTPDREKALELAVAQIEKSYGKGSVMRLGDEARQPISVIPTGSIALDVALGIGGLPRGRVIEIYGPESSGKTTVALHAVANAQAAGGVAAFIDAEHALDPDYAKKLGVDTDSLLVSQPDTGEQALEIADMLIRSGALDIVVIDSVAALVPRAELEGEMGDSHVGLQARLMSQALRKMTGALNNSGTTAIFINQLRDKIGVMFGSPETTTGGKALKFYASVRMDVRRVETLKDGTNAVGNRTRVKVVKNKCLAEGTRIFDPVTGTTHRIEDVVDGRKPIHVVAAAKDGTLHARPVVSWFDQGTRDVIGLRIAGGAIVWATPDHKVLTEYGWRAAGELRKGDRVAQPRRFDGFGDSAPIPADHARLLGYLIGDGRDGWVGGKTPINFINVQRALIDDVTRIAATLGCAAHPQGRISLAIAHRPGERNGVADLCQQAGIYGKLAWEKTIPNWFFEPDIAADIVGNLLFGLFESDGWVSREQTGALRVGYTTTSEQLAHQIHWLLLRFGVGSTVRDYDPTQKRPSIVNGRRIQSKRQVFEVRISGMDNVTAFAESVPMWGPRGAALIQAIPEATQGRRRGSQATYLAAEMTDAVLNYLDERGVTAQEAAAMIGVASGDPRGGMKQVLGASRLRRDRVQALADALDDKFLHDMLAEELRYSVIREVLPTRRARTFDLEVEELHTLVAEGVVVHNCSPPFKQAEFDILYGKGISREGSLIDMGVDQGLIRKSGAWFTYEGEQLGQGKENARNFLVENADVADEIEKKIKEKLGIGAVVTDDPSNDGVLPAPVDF
Briefly: Fluorescence Cell-Free Homogeneous Dose Retest to Identify Inhibitors of RecA-Intein Splicing Activity. [Related pubchem assays (depositor defined):AID2097, AID2223, AID489010, AID492950]. Format: functional.

Data set [12] deals with Luciferin 4-monooxygenase (Photinus pyralis, UniProt P08659). Briefly: inhibition of purified Photinus pyralis luciferase – biochemical, luminescence, dose response (AID 1891).
The nature of data set [13]: Luminescence Cell-Based Dose Confirmation HTS to Identify Inhibitors of Platelet Dense Granule Release. [Related pubchem assays: 1663 (Primary HTS), 1678 (Summary of Project)]. Format: functional.
The nature of data set [14]: Fluorescence Cell-Based Dose Response to Identify Inhibitors of Thrombin Receptor-Activating Peptide SFLLRN-Mediated P-Selectin Induction on Platelets. [Related pubchem assays: 1663 (Primary HTS), 1889 (retest at dose ), 1891 (counterscreen), 1678 (Project Summary)]. Format: functional.
The target of data set [15] is Lysine-specific demethylase 4C (Homo sapiens, UniProt Q9H3R0). Kind of data set: inhibition of JMJD2C H3K9me3 demethylation – biochemical, DELFIA europium, cherry-picked samples, dose response (AID 488835). Format: functional.
Data set [16] has as its target Intestinal-type alkaline phosphatase (Mus musculus, UniProt P24822). Briefly: PubChem AID 488785. Format: functional.
Data set [17] addresses T7, Alkaline phosphatase, tissue-nonspecific isozyme (Homo sapiens, UniProt P05186).
T7 sequence (P05186 whole entry): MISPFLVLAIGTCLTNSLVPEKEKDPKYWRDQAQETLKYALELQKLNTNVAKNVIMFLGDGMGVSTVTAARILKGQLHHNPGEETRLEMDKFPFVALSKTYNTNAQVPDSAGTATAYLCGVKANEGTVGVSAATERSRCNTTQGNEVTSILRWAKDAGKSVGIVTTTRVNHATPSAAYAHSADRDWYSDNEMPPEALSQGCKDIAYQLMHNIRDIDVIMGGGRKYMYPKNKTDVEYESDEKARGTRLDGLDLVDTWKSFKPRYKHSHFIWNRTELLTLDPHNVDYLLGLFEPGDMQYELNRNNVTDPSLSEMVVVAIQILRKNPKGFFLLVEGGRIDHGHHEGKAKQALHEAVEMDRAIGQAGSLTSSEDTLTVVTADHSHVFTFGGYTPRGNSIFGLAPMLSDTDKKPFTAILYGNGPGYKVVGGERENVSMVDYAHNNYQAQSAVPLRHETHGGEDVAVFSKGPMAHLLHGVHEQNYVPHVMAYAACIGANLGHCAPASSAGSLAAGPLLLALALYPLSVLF
Kind of data set: TNAP enzyme inhibition by screening hits, dose response, selectivity assay for mouse IAP inhibitor project, biochemical, human TNAP, uHTS hits (AID 488906). Format: functional.

In data set [18] the target is Intestinal-type alkaline phosphatase (Homo sapiens, UniProt P09923). Kind of data set: inhibition of human intestinal alkaline phosphatase – biochemical, dose response (AID 488876). Format: functional.
Data set [19] concerns the target Protein phosphatase methylesterase 1 (Homo sapiens, UniProt Q9Y570). Briefly: Late stage assay provider results from the probe development effort to identify inhibitors of protein phosphatase methylesterase 1 (PME-1): Gel-based Activity-Based Protein Profiling (ABPP) IC50 Set 2. [Related pubchem assays (depositor defined):AID2130, AID2143, AID2171, AID2174, AID2177, AID2232, AID2233, AID2291, AID2363, AID2365, AID2366, AID2368, AID2369, AID2371, AID463090, AID463091]. Format: functional.

Data set [20] is described as follows: Late stage assay provider results from the probe development effort to identify inhibitors of Protein Phosphatase Methylesterase 1 (PME-1): luminescence-based biochemical dose response assay to determine cytotoxicity of inhibitor compounds. [Related pubchem assays (depositor defined):AID2130, AID2143, AID2171, AID2174, AID2177, AID2232, AID2233, AID2291, AID2363, AID2365, AID2366, AID2368, AID2369, AID2371, AID463124, AID463130, AID463131, AID463132, AID463146, AID463149] Panel member name: Fetal Calf Serum. Format: toxicity.

The nature of data set [21]: Late stage assay provider results from the probe development effort to identify inhibitors of Protein Phosphatase Methylesterase 1 (PME-1): luminescence-based […] dose response assay to determine cytotoxicity of inhibitor compounds. [Related pubchem assays (depositor defined):AID2130, AID2143, AID2171, AID2174, AID2177, AID2232, AID2233, AID2291, AID2363, AID2365, AID2366, AID2368, AID2369, AID2371, AID463124, AID463130, AID463131, AID463132, AID463146, AID463149] Panel member name: Serum-free Media. Format: toxicity.

T3 sequence (P49327 whole entry): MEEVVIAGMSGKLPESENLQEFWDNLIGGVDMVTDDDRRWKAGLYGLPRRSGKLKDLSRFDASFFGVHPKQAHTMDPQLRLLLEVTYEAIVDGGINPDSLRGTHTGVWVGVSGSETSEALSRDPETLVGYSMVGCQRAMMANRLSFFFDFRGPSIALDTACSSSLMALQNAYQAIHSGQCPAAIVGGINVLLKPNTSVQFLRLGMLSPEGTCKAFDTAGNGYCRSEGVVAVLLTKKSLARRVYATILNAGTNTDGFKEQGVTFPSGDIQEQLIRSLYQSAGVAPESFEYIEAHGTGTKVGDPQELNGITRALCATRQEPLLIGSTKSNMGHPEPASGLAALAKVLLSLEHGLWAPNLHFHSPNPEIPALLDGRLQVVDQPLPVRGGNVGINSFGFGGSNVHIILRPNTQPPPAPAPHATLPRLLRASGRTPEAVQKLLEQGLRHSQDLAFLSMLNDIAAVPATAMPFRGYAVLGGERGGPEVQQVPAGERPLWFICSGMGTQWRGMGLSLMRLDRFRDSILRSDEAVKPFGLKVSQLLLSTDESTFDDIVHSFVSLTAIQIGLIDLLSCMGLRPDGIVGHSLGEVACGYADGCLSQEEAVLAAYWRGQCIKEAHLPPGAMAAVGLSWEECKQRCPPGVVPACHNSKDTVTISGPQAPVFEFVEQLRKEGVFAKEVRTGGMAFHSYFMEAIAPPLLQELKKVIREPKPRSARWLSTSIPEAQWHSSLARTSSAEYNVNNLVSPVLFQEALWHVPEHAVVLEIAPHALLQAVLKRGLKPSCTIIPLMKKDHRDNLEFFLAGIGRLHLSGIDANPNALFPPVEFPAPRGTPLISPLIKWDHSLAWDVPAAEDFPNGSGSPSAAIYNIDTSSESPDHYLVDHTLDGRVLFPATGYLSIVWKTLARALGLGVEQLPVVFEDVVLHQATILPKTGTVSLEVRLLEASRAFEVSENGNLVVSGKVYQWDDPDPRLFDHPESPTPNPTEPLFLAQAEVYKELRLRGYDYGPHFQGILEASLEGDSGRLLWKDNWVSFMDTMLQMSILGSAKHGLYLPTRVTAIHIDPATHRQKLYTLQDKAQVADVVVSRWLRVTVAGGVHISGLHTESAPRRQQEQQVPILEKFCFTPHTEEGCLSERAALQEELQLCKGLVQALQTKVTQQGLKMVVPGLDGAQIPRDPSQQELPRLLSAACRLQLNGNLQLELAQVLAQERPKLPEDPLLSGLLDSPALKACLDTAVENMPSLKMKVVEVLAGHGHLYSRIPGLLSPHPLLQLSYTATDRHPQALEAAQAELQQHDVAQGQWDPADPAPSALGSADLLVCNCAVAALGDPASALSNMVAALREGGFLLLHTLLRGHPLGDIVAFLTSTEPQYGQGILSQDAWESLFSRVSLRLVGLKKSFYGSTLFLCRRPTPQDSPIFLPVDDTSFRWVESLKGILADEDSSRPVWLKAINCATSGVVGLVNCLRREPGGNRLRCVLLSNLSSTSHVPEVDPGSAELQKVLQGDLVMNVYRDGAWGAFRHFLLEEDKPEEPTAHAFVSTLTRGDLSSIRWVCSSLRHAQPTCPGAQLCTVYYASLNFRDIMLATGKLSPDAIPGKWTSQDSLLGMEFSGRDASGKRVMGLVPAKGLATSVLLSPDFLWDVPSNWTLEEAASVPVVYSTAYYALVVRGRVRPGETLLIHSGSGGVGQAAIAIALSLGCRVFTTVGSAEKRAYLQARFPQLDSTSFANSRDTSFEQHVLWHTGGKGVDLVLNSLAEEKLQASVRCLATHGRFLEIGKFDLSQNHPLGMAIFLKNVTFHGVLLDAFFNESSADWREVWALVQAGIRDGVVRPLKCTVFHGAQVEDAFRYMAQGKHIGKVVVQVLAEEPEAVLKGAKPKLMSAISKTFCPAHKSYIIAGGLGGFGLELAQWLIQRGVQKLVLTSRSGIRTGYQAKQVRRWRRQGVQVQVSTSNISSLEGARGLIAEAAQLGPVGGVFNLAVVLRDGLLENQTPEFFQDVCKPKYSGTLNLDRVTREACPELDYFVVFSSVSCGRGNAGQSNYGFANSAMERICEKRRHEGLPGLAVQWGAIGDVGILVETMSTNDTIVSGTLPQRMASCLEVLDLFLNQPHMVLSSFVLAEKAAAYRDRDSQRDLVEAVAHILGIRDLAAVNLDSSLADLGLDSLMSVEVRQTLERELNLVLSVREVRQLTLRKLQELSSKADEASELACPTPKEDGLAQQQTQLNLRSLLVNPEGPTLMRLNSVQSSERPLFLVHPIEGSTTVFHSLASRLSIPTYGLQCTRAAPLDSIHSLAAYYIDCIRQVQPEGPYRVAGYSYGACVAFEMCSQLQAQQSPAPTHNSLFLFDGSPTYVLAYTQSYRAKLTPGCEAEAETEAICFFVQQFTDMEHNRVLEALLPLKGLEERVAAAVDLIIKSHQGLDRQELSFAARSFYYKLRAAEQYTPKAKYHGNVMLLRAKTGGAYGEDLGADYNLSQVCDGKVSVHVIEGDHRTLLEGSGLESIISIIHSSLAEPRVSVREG
T4 sequence (Q9UBE0 whole entry): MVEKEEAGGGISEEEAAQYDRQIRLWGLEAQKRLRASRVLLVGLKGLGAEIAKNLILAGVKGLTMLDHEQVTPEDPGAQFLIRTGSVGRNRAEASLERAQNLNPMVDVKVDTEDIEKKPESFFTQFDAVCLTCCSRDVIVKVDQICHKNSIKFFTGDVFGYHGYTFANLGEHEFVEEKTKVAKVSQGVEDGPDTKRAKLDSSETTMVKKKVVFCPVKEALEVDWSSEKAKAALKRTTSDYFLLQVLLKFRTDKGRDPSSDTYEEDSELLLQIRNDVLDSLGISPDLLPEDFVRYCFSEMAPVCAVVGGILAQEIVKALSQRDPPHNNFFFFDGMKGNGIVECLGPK
T4 sequence (Q9UBT2 whole entry): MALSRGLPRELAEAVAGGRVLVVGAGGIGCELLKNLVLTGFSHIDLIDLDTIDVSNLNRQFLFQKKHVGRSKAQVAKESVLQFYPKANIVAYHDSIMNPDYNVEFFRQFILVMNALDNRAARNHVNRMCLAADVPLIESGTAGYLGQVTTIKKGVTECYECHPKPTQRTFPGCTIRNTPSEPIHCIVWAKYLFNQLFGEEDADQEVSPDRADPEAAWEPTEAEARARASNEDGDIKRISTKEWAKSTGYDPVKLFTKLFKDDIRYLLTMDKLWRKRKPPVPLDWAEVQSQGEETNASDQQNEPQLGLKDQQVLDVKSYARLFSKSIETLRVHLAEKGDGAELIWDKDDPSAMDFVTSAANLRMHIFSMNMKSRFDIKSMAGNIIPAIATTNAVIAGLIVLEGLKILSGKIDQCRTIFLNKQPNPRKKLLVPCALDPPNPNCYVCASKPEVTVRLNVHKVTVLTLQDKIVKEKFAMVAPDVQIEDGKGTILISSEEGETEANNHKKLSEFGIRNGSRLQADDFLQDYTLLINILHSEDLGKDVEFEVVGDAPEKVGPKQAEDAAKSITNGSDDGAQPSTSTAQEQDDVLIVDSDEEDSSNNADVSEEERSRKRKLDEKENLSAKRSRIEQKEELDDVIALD
T1 sequence (P41143 whole entry): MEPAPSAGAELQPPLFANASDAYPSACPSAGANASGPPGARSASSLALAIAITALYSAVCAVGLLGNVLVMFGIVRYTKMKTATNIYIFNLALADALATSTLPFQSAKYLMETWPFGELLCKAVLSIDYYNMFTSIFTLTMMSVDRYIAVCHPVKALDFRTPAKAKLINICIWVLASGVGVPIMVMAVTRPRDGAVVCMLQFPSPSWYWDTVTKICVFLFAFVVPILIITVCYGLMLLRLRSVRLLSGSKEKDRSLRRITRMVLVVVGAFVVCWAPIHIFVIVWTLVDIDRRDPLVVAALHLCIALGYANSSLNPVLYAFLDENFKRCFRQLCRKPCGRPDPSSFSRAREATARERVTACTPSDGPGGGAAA
T2 sequence (P41145 whole entry): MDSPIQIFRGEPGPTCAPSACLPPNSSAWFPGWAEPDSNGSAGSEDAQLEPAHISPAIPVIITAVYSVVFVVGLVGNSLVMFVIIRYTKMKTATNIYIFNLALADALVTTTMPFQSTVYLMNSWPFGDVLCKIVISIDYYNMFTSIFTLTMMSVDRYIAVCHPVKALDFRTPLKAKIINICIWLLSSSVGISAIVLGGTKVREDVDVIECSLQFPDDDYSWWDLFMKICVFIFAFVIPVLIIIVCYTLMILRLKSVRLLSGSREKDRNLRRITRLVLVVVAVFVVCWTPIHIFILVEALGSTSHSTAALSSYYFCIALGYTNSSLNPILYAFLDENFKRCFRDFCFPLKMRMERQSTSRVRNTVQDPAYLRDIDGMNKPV
Intestinal-type alkaline phosphatase (Homo sapiens, UniProt P09923), sequence (P09923 whole entry): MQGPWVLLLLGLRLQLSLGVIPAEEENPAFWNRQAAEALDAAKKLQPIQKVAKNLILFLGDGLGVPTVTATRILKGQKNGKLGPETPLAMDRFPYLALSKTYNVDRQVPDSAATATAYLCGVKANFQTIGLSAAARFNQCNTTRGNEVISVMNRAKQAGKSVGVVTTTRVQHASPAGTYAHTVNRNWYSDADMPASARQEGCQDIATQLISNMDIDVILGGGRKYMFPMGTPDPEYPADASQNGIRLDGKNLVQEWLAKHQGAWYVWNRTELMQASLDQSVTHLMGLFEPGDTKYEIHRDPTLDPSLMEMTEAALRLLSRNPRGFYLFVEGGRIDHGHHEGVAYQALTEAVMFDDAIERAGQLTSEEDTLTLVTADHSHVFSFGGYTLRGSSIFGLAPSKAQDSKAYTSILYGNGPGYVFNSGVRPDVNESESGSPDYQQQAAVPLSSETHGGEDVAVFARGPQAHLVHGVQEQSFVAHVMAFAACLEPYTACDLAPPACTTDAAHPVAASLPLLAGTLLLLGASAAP
SUMO E1/E2, sequence (Q9UBE0 whole entry): as the sequence (Q9UBE0 whole entry) above
SUMO E1/E2, sequence (Q9UBT2 whole entry): as the sequence (Q9UBT2 whole entry) above
SUMO E1/E2, sequence (P63279 whole entry): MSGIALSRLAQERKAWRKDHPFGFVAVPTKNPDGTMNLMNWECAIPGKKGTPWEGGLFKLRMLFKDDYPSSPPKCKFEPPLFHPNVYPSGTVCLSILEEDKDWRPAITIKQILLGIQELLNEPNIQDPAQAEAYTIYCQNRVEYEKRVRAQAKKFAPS

Consider `N#Cc1c(-c2ccccc2)ccn(Cc2cccc(Cl)c2)c1=O`, for which the IC50 (at Exodeoxyribonuclease V; in [1]) was > 119 µM (inactive) in each case.
For `O=C1C2ON(c3ccccc3)C(c3cccnc3)C2C(=O)N1c1ccc(Cl)c(Cl)c1` (stereo not drawn), the IC50 was > 32 µM (inactive) in [2], 9.19 µM (active) on Fatty acid synthase [6] and 8.26 µM (active) at Fatty acid synthase [7]. Also, the EC50 is > 32 µM (inactive) at Mu-type opioid receptor, > 32 µM (inactive) in [3], above 35 µM in data set [4] and 26.4 µM in [5].
With `O=C(/C=C/c1cccs1)Nc1scc(-c2ccccc2)c1C(=O)O`, the IC50 at SUMO-activating enzyme [8] was 2.74 µM (active); at SUMO-activating enzyme [9], 9.84 µM (active); at SUMO E1/E2 it was 6.11 µM (active); in data set [10] it was 5.76 µM (active); on Hexokinase HKDC1, 7 µM (active). Moreover, the AC50 in [11] is 23.3 µM (active). In addition, on Protein RecA, the concentration giving a half-maximal response (EC50) was 10.6 µM (active).
On to `COc1ccc(/C=N/N(C)c2cc(=O)n(C)c(=O)[nH]2)cc1OC`, for which the EC50 is > 112 µM (not active) in [12], 0.693 µM (active) in data set [13] and < 1 µM (active) in data set [14]. Also, in data set [15], the half-maximal activity concentration (AC50) was 17.8 µM (active).
For the compound `NS(=O)(=O)c1ccc2c(c1)oc(=O)c1cc(S(N)(=O)=O)ccc12`, the values for the IC50 in [16], in data set [17] and in [18] were 2.51 µM (active), 11.8 µM (active) and 7.73 µM (active), respectively.
In the case of `COC(=O)N1C(=O)[C@](c2ccccc2)(C2CCCC2)N1C(=O)OC`, the 50% inhibitory concentration (IC50) was 0.01 µM (active) in [19], 0.884 µM (active) on Fatty acid synthase [6] and 0.715 µM (active) at Fatty acid synthase [7]. Besides, the CC50 in data set [20] and in data set [21] was > 50 µM (inactive) in each case.

For the origin of these results see ChEMBL document CHEMBL1201862, “PubChem BioAssay data set” (2004).
